Results on 20 compounds are retold here after patent publication US20260265246A1 (ICAHN SCHOOL OF MEDICINE AT MOUNT SINAI, priority 2021, published 2026).

For the first assay, the target named is 5HT2A receptor (Homo sapiens, UniProt P28223). Kind of assay: biochemical. Type of assay: binding. Also noted: expressed in transfected cells; crude membranes. The note with it: 5HT2A Ki (nM), secondary binding assay, Cheng-Prusoff.
5HT2A receptor, sequence (P28223 whole entry): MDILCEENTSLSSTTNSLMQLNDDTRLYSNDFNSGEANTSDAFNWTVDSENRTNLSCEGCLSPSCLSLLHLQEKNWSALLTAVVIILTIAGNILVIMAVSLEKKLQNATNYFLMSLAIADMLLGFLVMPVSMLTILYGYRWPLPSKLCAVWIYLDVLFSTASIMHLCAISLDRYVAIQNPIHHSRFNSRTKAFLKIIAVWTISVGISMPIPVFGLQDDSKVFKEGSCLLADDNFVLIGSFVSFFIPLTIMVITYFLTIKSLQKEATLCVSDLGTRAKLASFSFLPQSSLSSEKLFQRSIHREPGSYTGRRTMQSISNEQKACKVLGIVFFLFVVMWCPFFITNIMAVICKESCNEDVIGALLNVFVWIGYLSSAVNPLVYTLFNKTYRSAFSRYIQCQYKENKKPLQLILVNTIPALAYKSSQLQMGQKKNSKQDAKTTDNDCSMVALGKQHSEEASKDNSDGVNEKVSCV
A word on the Ki: it is a measure of affinity in units of concentration, obtained from inhibition or displacement. Take `CCCN1CCC=C(c2c[nH]c3cnccc23)C1` [Example 143, 3-(1-propyl-1,2,5,6-tetrahydropyridin-3-yl)-1H-pyrrolo[2,3-c]pyridine]: the affinity corresponds to a Ki of 9760 nM.
Compound `Cc1cc(Br)cc2c(C3CNC3)c[nH]c12` [Example 265, 3-(azetidin-3-yl)-5-bromo-7-methyl-1H-indole] came in with a Ki of 217 nM.
In the case of `Clc1cccc2c(-c3cccnc3)n[nH]c12` [Example 214, 7-chloro-3-(pyridin-3-yl)-1H-indazole], the Ki was > 10000 nM.
`Fc1cccc2c(C34CNCC3C4(F)F)n[nH]c12` (centres unmarked) [Example 201, 3-(6,6-difluoro-3-azabicyclo[3.1.0]hexan-1-yl)-7-fluoro-1H-indazole] yielded a Ki of 4310 nM.
`FC1(F)CC(N2CCC=C(c3n[nH]c4c(Cl)cccc34)C2)C1` [Example 179, 7-chloro-3-(1-(3,3-difluorocyclobutyl)-1,2,5,6-tetrahydropyridin-3-yl)-1H-indazole] had a Ki of 8620 nM.
The compound `CCCc1cccc2c(C3CCCN(C)C3)c[nH]c12` (centres unmarked) [Example 235, 3-(1-methylpiperidin-3-yl)-7-propyl-1H-indole] yielded an inhibitory constant (Ki) of 5550 nM.
As for `Clc1cccc2c(C3=CCOCC3)n[nH]c12` [Example 220, 7-chloro-3-(3,6-dihydro-2H-pyran-4-yl)-1H-indazole], the Ki was > 10000 nM.
`Cc1cccc2c(C34CNCCC3C4(F)F)n[nH]c12` (centres unmarked) [Example 189, 3-(7,7-difluoro-3-azabicyclo[4.1.0]heptan-1-yl)-7-methyl-1H-indazole] showed an inhibition constant (Ki) of 6920 nM.
In turn, `CCCN1CCC=C(c2n[nH]c3c(Cl)ccc(F)c23)C1` [Example 177, 7-chloro-4-fluoro-3-(1-propyl-1,2,5,6-tetrahydropyridin-3-yl)-1H-indazole] displayed a Ki of 1830 nM.
As to `CN1CCC(c2n[nH]c3c(Cl)cccc23)CC1` [Example 240, 7-chloro-3-(1-methylpiperidin-4-yl)-1H-indazole], the Ki amounted to 378 nM.
As to `Cc1cccc2c(C3CN4CCC3CC4)c[nH]c12` (centres unmarked) [Example 253, 3-(7-methyl-1H-indol-3-yl)quinuclidine], the Ki is > 10000 nM.
The same measure, in the same setting: the value for `Clc1cccc2c(C3=CCCN(C4COC4)C3)n[nH]c12` [Example 178, 7-chloro-3-(1-(oxetan-3-yl)-1,2,5,6-tetrahydropyridin-3-yl)-1H-indazole] was > 10000 nM.

Staying with this assay, now noted: 5HT2A Ki (nM), secondary radioligand binding, Ki from IC50 by Cheng-Prusoff.
Compound `CC(C)(C)c1ccc2c(C3=CCCNC3)c[nH]c2c1` [Example 37, 6-(tert-butyl)-3-(1,2,5,6-tetrahydropyridin-3-yl)-1H-indole] yielded a Ki of 9910 nM.
For the compound `CCN(CC)C(=O)NC1C=C(c2c[nH]c3ncccc23)CNC1` (centres unmarked) [Example 49, 3-(5-(1H-pyrrolo[2,3-b]pyridin-3-yl)-1,2,3,6-tetrahydropyridin-3-yl)-1,1-diethylurea], the Ki was 5580 nM.
For `Clc1cccn2c(C3=CCCNC3)cnc12` [Example 110, 8-chloro-3-(1,2,5,6-tetrahydropyridin-3-yl)imidazo[1,2-a]pyridine], the inhibitory constant (Ki) was > 10000 nM.
Turning to `COc1cccc2c(C3=CCCNC3)c[nH]c12` [Example 51, 7-methoxy-3-(1,2,5,6-tetrahydropyridin-3-yl)-1H-indole], the Ki was > 10000 nM.
In the case of `OCc1cccc2c(C3=CCCN(Cc4ccccc4)C3)c[nH]c12` [Example 75, (3-(1-benzyl-1,2,5,6-tetrahydropyridin-3-yl)-1H-indol-7-yl)methanol], the Ki was > 10000 nM.
On the same count and under the same terms, the value for `CN1CCC=C(c2c[nH]c3ccc(-c4ccccc4)cc23)C1` [Example 28, 3-(1-methyl-1,2,5,6-tetrahydropyridin-3-yl)-5-phenyl-1H-indole] was 498 nM.
In turn, `CC(C)c1cccc2c(C3=CCCN(Cc4ccccc4)C3)c[nH]c12` [Example 70, 3-(1-benzyl-1,2,5,6-tetrahydropyridin-3-yl)-7-(propan-2-yl)-1H-indole] returned a Ki of 2050 nM.

Staying with this assay, now noted: secondary binding assay, Cheng-Prusoff; read-out: 5HT2A Ki.
On to `C1=C(c2c[nH]c3cnccc23)CNCC1` [Example 142, 3-(1,2,5,6-tetrahydropyridin-3-yl)-1H-pyrrolo[2,3-c]pyridine], for which the Ki is 152 nM.
